Patent US20240239811A1, “5-(5-(PIPERIDIN-4-YL)THIENO[3,2-C]PYRAZOL-2-YL]INDAZOLE DERIVATIVES AND RELATED COMPOUNDS AS MODULATORS FOR SPLICING NUCLEIC ACIDS AND FOR THE T” (REMIX THERAPEUTICS INC., priority 2020, published 2024)
Structures can show the parent of a compound that is named as a salt. Blank lines part the entries; values can stand above or below the compound they belong to.

Tests used:
Type in all cases: cell-based
HTT CJ mRNA = assay: Gene panel canonical junction qPCR assay, HTT; settings: Table 6, decrease in CJ mRNA, read-out: HTT IC50 (decrease in CJ mRNA levels)
How it was run: (§1)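 A673 or K562 cells treated 24 h at 37° C with 11-point 3-fold dilutions, top 10 uM, DMSO ≤0.25%. CJ mRNA quantified by RT-qPCR with exon-junction-spanning probeset, ΔΔCt vs housekeeping gene (GAPDH, GUSB or PPIA) and DMSO control. IC50 from 4-parameter fit of percentage CJ decrease.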

Target C CJ mRNA = assay: Gene panel canonical junction qPCR assay, Target C; settings: Table 6, decrease in CJ mRNA, read-out: Target C IC50 (decrease in CJ mRNA levels)
How it was run: as §1

SMN2 CJ mRNA = assay: Gene panel canonical junction qPCR assay, SMN2; settings: Table 6, decrease in CJ mRNA, read-out: SMN2 IC50 (decrease in CJ mRNA levels)
How it was run: as §1

HTT mRNA = assay: Splicing assay (RT-qPCR) monitoring HTT splice variants, canonical (CJ) and alternative (AJ) junction; settings: 50% response, A673 or K562 cell line, 24 hours; for IC50: decrease in CJ mRNA; for AC50: increase in AJ mRNA
How it was run: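 A673 or K562 cells were treated 24 h with an 11-point 3-fold dilution series (top 10 uM, ≤0.25% DMSO) at 37 °C. HTT canonical- and alternative-junction mRNAs were quantified in lysates by one-step RT-qPCR. Values were normalized to PPIA (A673) or GAPDH/GUSB (K562).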

SMILES: COc1c(-c2cc3cn(C4CCNCC4)nc3s2)cc(F)c2nn(C)cc12 [Compound 224]
IC50 (HTT CJ mRNA): > 10000 nM
IC50 (Target C CJ mRNA): > 10000 nM
IC50 (SMN2 CJ mRNA): > 10000 nM
IC50 (HTT mRNA): > 10000 nM
AC50 (HTT mRNA): > 10000 nM

SMILES: Cc1cn2nc(-c3cc4cn(C5CCNCC5)nc4s3)c(O)c2c(C)n1 [Compound 213, 4,6-dimethyl-2-[2-(piperidin-4-yl)thieno[2,3-c]pyrazol-5-yl]pyrazolo[1,5-a]pyrazin-3-ol hydrochloride]
IC50 (HTT CJ mRNA): 1000 to 10000 nM
IC50 (Target C CJ mRNA): > 10000 nM
IC50 (SMN2 CJ mRNA): 1000 to 10000 nM
IC50 (HTT mRNA): 1000 to 10000 nM
AC50 (HTT mRNA): 1000 to 10000 nM

SMILES: Cn1cc2cc(-c3cc4cn(C5CCNCC5)nc4s3)ncc2n1 [Compound 214]
IC50 (HTT CJ mRNA): 1000 to 10000 nM
IC50 (Target C CJ mRNA): 1000 to 10000 nM
IC50 (SMN2 CJ mRNA): 100 to 1000 nM
IC50 (HTT mRNA): 1000 to 10000 nM
AC50 (HTT mRNA): 100 to 1000 nM

SMILES: Cc1cn2cc(-c3nc4sc(C5CCNCC5)cc4s3)ncc2n1 [Compound 205, 4-(2-{2-methylimidazo[1,2-a]pyrazin-6-yl}thieno[2,3-d][1,3]thiazol-5-yl)piperidine]
IC50 (HTT CJ mRNA): 1000 to 10000 nM
IC50 (Target C CJ mRNA): 1000 to 10000 nM
IC50 (SMN2 CJ mRNA): 1000 to 10000 nM
IC50 (HTT mRNA): 1000 to 10000 nM
AC50 (HTT mRNA): 1000 to 10000 nM

SMILES: Cc1cn2nc(-n3cc4sc(N5CCC(NC(C)(C)C)C5)cc4n3)cc(C)c2n1 (stereo not drawn) [Compound 189, N-tert-butyl-1-(2-{2,8-dimethylimidazo[1,2-b]pyridazin-6-yl}thieno[3,2-c]pyrazol-5-yl) pyrrolidin-3-amine]
IC50 (HTT CJ mRNA): > 10000 nM
IC50 (Target C CJ mRNA): > 10000 nM
IC50 (SMN2 CJ mRNA): 1000 to 10000 nM
IC50 (HTT mRNA): > 10000 nM
AC50 (HTT mRNA): > 10000 nM

SMILES: CN1CCN(c2cc3sc(-c4cc(F)c5nn(C)cc5c4)nc3s2)CC1 [Compound 141, 7-fluoro-2-methyl-5-[5-(4-methylpiperazin-1-yl)thieno[2,3-d][1,3]thiazol-2-yl]indazole]
IC50 (HTT CJ mRNA): 100 to 1000 nM
IC50 (Target C CJ mRNA): 1000 to 10000 nM
IC50 (SMN2 CJ mRNA): < 100 nM
IC50 (HTT mRNA): 100 to 1000 nM
AC50 (HTT mRNA): 100 to 1000 nM

SMILES: Cc1cn2nc(-c3cc4cn(C5CCNCC5)nc4s3)cc2c(C)n1 [Compound 222]
IC50 (HTT CJ mRNA): 1000 to 10000 nM
IC50 (Target C CJ mRNA): 1000 to 10000 nM
IC50 (SMN2 CJ mRNA): < 100 nM
IC50 (HTT mRNA): 1000 to 10000 nM
AC50 (HTT mRNA): 1000 to 10000 nM

SMILES: Cc1nc2c(F)cc(-n3cc4sc(C5CCNCC5)cc4n3)cc2s1 [Compound 168]
IC50 (HTT CJ mRNA): 1000 to 10000 nM
IC50 (Target C CJ mRNA): > 10000 nM
IC50 (SMN2 CJ mRNA): 100 to 1000 nM
IC50 (HTT mRNA): 1000 to 10000 nM
AC50 (HTT mRNA): 1000 to 10000 nM

SMILES: CN1CCC(N(C)c2cc3sc(-c4cc(F)c5nn(C)cc5c4)nc3s2)CC1 [Compound 145, N-[2-(7-fluoro-2-methylindazol-5-yl)thieno[2,3-d][1,3]thiazol-5-yl]-N,1-dimethylpiperidin-4-amine]
IC50 (HTT CJ mRNA): > 10000 nM
IC50 (Target C CJ mRNA): > 10000 nM
IC50 (SMN2 CJ mRNA): 100 to 1000 nM
IC50 (HTT mRNA): > 10000 nM
AC50 (HTT mRNA): > 10000 nM

SMILES: Cc1cn2nc(-c3nc4sc(C5CCOCC5)cc4s3)cc(C)c2n1 [Compound 196, 2,8-dimethyl-6-[5-(oxan-4-yl)thieno[2,3-d][1,3]thiazol-2-yl]imidazo[1,2-b]pyridazine]
IC50 (HTT CJ mRNA): 1000 to 10000 nM
IC50 (Target C CJ mRNA): 1000 to 10000 nM
IC50 (SMN2 CJ mRNA): 1000 to 10000 nM
IC50 (HTT mRNA): 1000 to 10000 nM
AC50 (HTT mRNA): 1000 to 10000 nM

SMILES: Cc1cn2cc(-n3cc4sc(C5CCNCC5)cc4n3)nc2c(C)n1 [Compound 181]
IC50 (HTT CJ mRNA): 1000 to 10000 nM
IC50 (Target C CJ mRNA): > 10000 nM
IC50 (SMN2 CJ mRNA): 1000 to 10000 nM
IC50 (HTT mRNA): 1000 to 10000 nM
AC50 (HTT mRNA): 1000 to 10000 nM

Second part, led by results:

IC50 (HTT CJ mRNA): < 100 nM
IC50 (Target C CJ mRNA): 100 to 1000 nM
IC50 (SMN2 CJ mRNA): < 100 nM
IC50 (HTT mRNA): < 100 nM
SMILES: Cc1cn2cc(-n3cc4cc(C5CCNCC5)sc4n3)cc(F)c2n1 [Compound 156]
AC50 (HTT mRNA): 100 to 1000 nM

IC50 (HTT CJ mRNA): 100 to 1000 nM
IC50 (Target C CJ mRNA): 100 to 1000 nM
IC50 (SMN2 CJ mRNA): 100 to 1000 nM
IC50 (HTT mRNA): 100 to 1000 nM
SMILES: Cc1cn2cc(-n3cc4cc(C5CCNCC5)sc4n3)ncc2n1 [Compound 158]
AC50 (HTT mRNA): 100 to 1000 nM

IC50 (HTT CJ mRNA): < 100 nM
IC50 (Target C CJ mRNA): < 100 nM
IC50 (SMN2 CJ mRNA): < 100 nM
IC50 (HTT mRNA): < 100 nM
SMILES: Cc1cn2cc(-c3nc4sc(C5CCNCC5)cc4s3)cc(Cl)c2n1 [Compound 139]
AC50 (HTT mRNA): < 100 nM

IC50 (HTT CJ mRNA): < 100 nM
IC50 (Target C CJ mRNA): 100 to 1000 nM
IC50 (SMN2 CJ mRNA): < 100 nM
IC50 (HTT mRNA): < 100 nM
SMILES: Cc1cn2cc(-n3cc4cc(C5CCNCC5)sc4n3)cc(Cl)c2n1 [Compound 165]
AC50 (HTT mRNA): < 100 nM

IC50 (HTT CJ mRNA): 100 to 1000 nM
IC50 (Target C CJ mRNA): 100 to 1000 nM
IC50 (SMN2 CJ mRNA): < 100 nM
IC50 (HTT mRNA): 100 to 1000 nM
SMILES: Cc1nc2c(F)cc(-n3cc4cc(C5CCNCC5)sc4n3)cc2o1 [Compound 157]
AC50 (HTT mRNA): 100 to 1000 nM

IC50 (HTT CJ mRNA): 100 to 1000 nM
IC50 (Target C CJ mRNA): 100 to 1000 nM
IC50 (SMN2 CJ mRNA): < 100 nM
IC50 (HTT mRNA): 100 to 1000 nM
SMILES: CCNC1CCN(c2cc3sc(-c4cc(F)c5nn(C)cc5c4)nc3s2)CC1 [Compound 137, N-ethyl-1-[2-(7-fluoro-2-methylindazol-5-yl)thieno[2,3-d][1,3]thiazol-5-yl]piperidin-4-amine]
AC50 (HTT mRNA): 100 to 1000 nM

IC50 (HTT CJ mRNA): < 100 nM
IC50 (Target C CJ mRNA): < 100 nM
IC50 (SMN2 CJ mRNA): < 100 nM
IC50 (HTT mRNA): < 100 nM
SMILES: C[C@@H]1C[C@H](c2cc3sc(-c4cc(F)c5nn(C)cc5c4)nc3s2)CCN1 [Compound 192, 7-fluoro-2-methyl-5-[5-(2-methylpiperidin-4-yl)thieno[2,3-d][1,3]thiazol-2-yl]indazole]
AC50 (HTT mRNA): < 100 nM

IC50 (HTT CJ mRNA): 100 to 1000 nM
IC50 (Target C CJ mRNA): 100 to 1000 nM
IC50 (SMN2 CJ mRNA): < 100 nM
IC50 (HTT mRNA): 100 to 1000 nM
SMILES: COc1cc2nn(C)cc2cc1-c1cc2cn(C3CCNCC3)nc2s1 [Compound 208]
AC50 (HTT mRNA): 100 to 1000 nM

IC50 (HTT CJ mRNA): 100 to 1000 nM
IC50 (Target C CJ mRNA): 1000 to 10000 nM
IC50 (SMN2 CJ mRNA): 100 to 1000 nM
IC50 (HTT mRNA): 100 to 1000 nM
SMILES: Cc1nc2c(F)cc(-n3cc4sc(C5CCNCC5)cc4n3)cc2o1 [Compound 167]
AC50 (HTT mRNA): 100 to 1000 nM

IC50 (HTT CJ mRNA): < 100 nM
IC50 (Target C CJ mRNA): 100 to 1000 nM
IC50 (SMN2 CJ mRNA): < 100 nM
IC50 (HTT mRNA): < 100 nM
SMILES: Cc1cc(-c2cc3cn(C4CCNCC4)nc3s2)cc2cn(C)nc12 [Compound 225]
AC50 (HTT mRNA): < 100 nM

IC50 (HTT CJ mRNA): 100 to 1000 nM
IC50 (Target C CJ mRNA): 1000 to 10000 nM
IC50 (SMN2 CJ mRNA): 100 to 1000 nM
IC50 (HTT mRNA): 100 to 1000 nM
SMILES: Cc1cn2nc(-n3cc4sc(C5CCNCC5)cc4n3)cc2c(C)n1 [Compound 171]
AC50 (HTT mRNA): 100 to 1000 nM

IC50 (HTT CJ mRNA): < 100 nM
IC50 (Target C CJ mRNA): < 100 nM
IC50 (SMN2 CJ mRNA): < 100 nM
IC50 (HTT mRNA): < 100 nM
SMILES: Cc1cn2cc(-c3nc4sc(C5CCNCC5)cc4s3)cc(F)c2n1 [Compound 130, 4-(2-[8-fluoro-2-methylimidazo[1,2-a]pyridin-6-yl]thieno[2,3-d][1,3]thiazol-5-yl)piperidine hydrochloride]
AC50 (HTT mRNA): < 100 nM

IC50 (HTT CJ mRNA): < 100 nM
IC50 (Target C CJ mRNA): < 100 nM
IC50 (SMN2 CJ mRNA): < 100 nM
IC50 (HTT mRNA): < 100 nM
SMILES: CN1CCC(c2cc3sc(-c4cc(F)c5nn(C)cc5c4)nc3s2)CC1 [Compound 151, 7-fluoro-2-methyl-5-[5-(1-methylpiperidin-4-yl)thieno[2,3-d][1,3]thiazol-2-yl]indazole]
AC50 (HTT mRNA): < 100 nM
